Experimental data from patent US6528455B1, “Phenoxy-and thiophenoxy acrylic acid compounds as herbicides” (BASF Aktiengesellschaft, priority 1999, dated 2003).

Test system: dicotyledonous harmful plants (ABUTH, AMARE, IPOSS, SOLNI)
Experiment: Greenhouse experiment, post-emergence treatment: herbicidal action
Type: in vivo
Settings: application rates of 3.9 and 1.95 g/ha of a.s., 2 to 4 weeks
Text: The test period extended over 2 to 4 weeks.

3-(4-Chloro-2-fluoro-5-(1-methoxycarbonyl-1-vinyloxy)phenyl)-1-methyl-6-trifluoromethyl-2,4-(1H, 3H)pyrimidinedione [Example 2]
herbicidal effect on dicotyledonous harmful plants compared with Comparative Example A: at least as good a herbicidal effect
